pIC50: −log10 of the molar value. Entries after “also recorded” stand apart in the source; their conditions may differ. Where two headings read alike, the source gives them in different places.
What was measured:
[1] = target: DPP IV (Homo sapiens, UniProt P27487); assay: In vitro DPP IV enzyme inhibition assay; inhibitors incubated at pH 2 or pH 8, then added to enzyme assay solution at pH 8.0; format: biochemical
Description: Inhibitors were incubated overnight in pH 2 or pH 8 solutions and then added directly to an enzyme assay solution at pH 8.0.
It is important to note that the x-axis in FIG. 3 refers to the concentration of the SPI, not the concentration of the released Xaa-boroPro.

[2] = system: Zucker rats; assay: Toxicity (mortality) after oral dose in rats; format: in vivo; details: rats, dose equivalent to 0.35 mg/kg of Val-boroPro (FIG. 6)
[3] = target: T1, Serum DPP IV (Rattus norvegicus, UniProt P14740); assay: Serum DPP IV activity in rats as a function of time after dosing; format: in vivo
T1 construct: Serum DPP IV activity in rats as a function of time; from tissue; host or cells: rat serum
T1 sequence (P14740 37-767 limits assumed): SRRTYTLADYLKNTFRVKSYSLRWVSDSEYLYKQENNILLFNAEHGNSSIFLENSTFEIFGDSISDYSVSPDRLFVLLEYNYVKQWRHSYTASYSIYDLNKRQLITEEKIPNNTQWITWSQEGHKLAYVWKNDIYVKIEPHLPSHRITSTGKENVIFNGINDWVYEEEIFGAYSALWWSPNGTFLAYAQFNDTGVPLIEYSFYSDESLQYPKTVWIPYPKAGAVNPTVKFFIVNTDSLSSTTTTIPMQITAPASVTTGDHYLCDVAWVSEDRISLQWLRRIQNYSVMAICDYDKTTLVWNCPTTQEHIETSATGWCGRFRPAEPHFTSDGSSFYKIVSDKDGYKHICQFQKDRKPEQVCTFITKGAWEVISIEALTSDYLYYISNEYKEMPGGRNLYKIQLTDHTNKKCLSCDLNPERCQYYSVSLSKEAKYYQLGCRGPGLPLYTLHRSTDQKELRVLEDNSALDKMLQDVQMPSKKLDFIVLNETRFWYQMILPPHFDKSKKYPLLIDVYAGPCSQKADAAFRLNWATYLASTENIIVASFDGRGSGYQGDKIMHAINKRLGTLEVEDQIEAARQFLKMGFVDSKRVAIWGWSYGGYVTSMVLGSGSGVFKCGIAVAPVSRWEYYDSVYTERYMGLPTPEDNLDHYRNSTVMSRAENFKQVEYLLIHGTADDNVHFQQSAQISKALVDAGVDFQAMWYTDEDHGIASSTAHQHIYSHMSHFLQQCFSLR
Description: FIG. 8 Serum DPP IV activity in rats as a function of time following a single oral dose of 0.025 mg/kg. Each bar represents the average of four rats.
Each bar represents the average of four rats.

[4] = system: DB/DB mice; assay: Fasting blood glucose in db/db (diabetic) mice; format: in vivo
Description: A dose of 1.7 mg corresponds to the 0.05 mg/kg dose.
Exendin is in phase 3 clinical trials for the treatment of type 2 diabetes (Amylin). Exendin-4 is widely regarded as the most powerful agent currently know for lowering fasting blood glucose levels and for improving glycemic control in diabetics.

[5] = system: DB/DB mice
[6] = target: serum DPP IV (Mus musculus, UniProt P28843); assay: In vivo inhibition of serum DPP IV in db/db mice after oral dose; details: for activity at 0.0025 mg/kg / activity at 0.01 mg/kg / activity at 0.025 mg/kg: mouse, iv, Diabetic-control = 100.00; for activity at 0.0025 mg/kg: read-out: In vivo inhibition of serum DPP IV, 0.0025 mg/kg; for activity at 0.01 mg/kg: read-out: In vivo inhibition of serum DPP IV, 0.01 mg/kg; for activity at 0.025 mg/kg: read-out: In vivo inhibition of serum DPP IV, 0.025 mg/kg
Sequence of serum DPP IV (P28843 37-760 limits assumed): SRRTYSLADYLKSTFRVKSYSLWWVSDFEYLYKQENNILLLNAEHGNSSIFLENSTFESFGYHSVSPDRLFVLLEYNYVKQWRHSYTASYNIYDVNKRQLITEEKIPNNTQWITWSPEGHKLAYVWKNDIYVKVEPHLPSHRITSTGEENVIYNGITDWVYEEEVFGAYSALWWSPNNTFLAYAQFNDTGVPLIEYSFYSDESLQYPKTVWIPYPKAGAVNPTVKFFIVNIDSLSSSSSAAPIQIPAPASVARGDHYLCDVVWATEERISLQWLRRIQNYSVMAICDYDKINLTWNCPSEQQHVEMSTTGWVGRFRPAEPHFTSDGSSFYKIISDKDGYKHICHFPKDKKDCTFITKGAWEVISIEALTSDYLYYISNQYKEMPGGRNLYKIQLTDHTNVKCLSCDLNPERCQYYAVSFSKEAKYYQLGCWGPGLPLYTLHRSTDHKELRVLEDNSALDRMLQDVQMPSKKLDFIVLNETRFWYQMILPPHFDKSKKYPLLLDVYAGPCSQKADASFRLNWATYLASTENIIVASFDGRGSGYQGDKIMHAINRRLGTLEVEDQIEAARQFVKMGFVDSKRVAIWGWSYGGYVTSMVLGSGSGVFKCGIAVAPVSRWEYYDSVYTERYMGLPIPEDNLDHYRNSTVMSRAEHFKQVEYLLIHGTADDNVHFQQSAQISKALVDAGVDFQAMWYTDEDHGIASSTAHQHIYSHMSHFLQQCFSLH

[7] = system: male Sprague-Dawley rats; details: rat, in vivo;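 also: test articles given by mouth, formulated in deionized Type I water as vehicle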
[8] = system: male Sprague-Dawley rats; assay: Example 10: clinical signs and mortality after single oral administration in male rats; details: 2.5 mg/kg ALA-PRO boronic dose equivalents;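 also: test articles given by mouth, formulated in deionized Type I water as vehicle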
[9] = pH 2, ten minutes, read-out: IC50 Values at Ten Minutes pH 2
[10] = pH 8, ten minutes, read-out: IC50 Values at Ten Minutes pH 8

Sequence of DPP IV (P27487 whole entry, species assumed): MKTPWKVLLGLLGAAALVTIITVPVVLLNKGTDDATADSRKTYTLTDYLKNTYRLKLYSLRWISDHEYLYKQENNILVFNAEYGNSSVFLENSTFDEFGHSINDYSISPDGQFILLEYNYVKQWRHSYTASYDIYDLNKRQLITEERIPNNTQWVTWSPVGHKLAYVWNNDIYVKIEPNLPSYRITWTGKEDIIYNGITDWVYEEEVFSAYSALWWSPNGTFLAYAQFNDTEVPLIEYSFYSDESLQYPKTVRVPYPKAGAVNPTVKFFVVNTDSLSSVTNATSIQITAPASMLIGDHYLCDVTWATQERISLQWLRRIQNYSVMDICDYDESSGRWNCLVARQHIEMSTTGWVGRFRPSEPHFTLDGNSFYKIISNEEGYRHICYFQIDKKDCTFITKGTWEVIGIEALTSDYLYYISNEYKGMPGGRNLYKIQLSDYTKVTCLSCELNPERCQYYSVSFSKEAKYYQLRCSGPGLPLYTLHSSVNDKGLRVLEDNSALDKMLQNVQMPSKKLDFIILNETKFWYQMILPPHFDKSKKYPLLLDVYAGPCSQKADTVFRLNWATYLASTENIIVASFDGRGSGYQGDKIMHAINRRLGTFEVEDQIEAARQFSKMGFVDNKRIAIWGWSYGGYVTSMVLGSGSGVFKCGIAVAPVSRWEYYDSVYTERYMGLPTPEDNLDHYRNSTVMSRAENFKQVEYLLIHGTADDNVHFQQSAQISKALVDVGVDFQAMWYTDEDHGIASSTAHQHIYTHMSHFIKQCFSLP

CC(C)C(NC(=O)C1CCCN1C(=O)C(N)C1CCCCC1)C(=O)N1CCCC1B(O)O (stereo not drawn) [ChgProValboroPro, Cyclohexylglycine-Proline-Valine-boroPro line]
pIC50 ([1]; pH 2, read-out: Tetrapeptide Prodrugs (IC50) pH 2): 7.19
pIC50 [1, 9]: 7.15
pIC50 ([1]; pH 8, read-out: Tetrapeptide Prodrugs (IC50) pH 8): 7.14
pIC50 [1, 10]: 7.15
Mortality (rats killed) [2]: one of four
Potency, duration and safety in vivo in rats compared with ValboroPro ([3]; rats, each bar average of four animals (FIG. 62)): more potent, longer acting, and safer than ValboroPro
Inhibition of serum DPP IV activity compared with Val-boroPro ([3]; rats, single oral dose of 0.025 mg/kg, average of four rats (FIG. 8), 0.025 mg/kg): outperforms Val-boroPro in inhibiting serum DPP IV activity; also recorded: outperforms Val-boroPro in inhibition serum DPP IV enzyme activity
Oral activity: serum DPP IV activity in rats ([3]; three different doses given orally (FIG. 6, 7)): very orally active; also recorded: orally active
Lowering fasting blood glucose compared with GLP-1 ([4]; db/db mice, dose of 1.7 mg corresponds to the 0.05 mg/kg dose (FIG. 65)): outperforms GLP-1 in lowering fasting blood glucose
Lowering fasting blood glucose compared with exendin-4 ([4]; diabetic (db/db) mice (FIG. 66, 67)): as effective as exendin-4 in lowering fasting blood glucose; also recorded: does about what the highest dose of exendin-4 could be expected to do
Glucose excursion following an oral glucose challenge ([5]; DB/DB mice, OGTT four hours post oral dose, dose equivalent to 0.05 mg/kg of Val-boroPro (FIG. 9)): markedly outperforms Val-boroPro in lowering the glucose excursion
Oral glucose tolerance test performance ([5]; db/db mice, single oral dose of 0.05 mg/kg three hours before oral glucose challenge (FIG. 63)): performs better than ValboroPro
Oral activity in mice compared with Val-boroPro ([6]; db/db mice (Table 3)): outperforms Val-boroPro in mice
activity at 0.0025 mg/kg ([6]; 1 hr Post Rx-Glucose): 84.5%
activity at 0.0025 mg/kg ([6]; 4 hrs Post Rx-Glucose): 81.8%
activity at 0.01 mg/kg ([6]; 1 hr Post Rx-Glucose): 48.9%
activity at 0.01 mg/kg ([6]; 4 hrs Post Rx-Glucose): 40.7%
activity at 0.025 mg/kg ([6]; 1 hr Post Rx-Glucose): 34.7%
activity at 0.025 mg/kg ([6]; 4 hrs Post Rx-Glucose): 24.4%

CNCC(=O)N1CC=CC1C(=O)NC(C)C(=O)N1CCCC1B(O)O (stereo not drawn) [SarDhpAlaboroPro, N-Me-Gly-3,4 dehydroproline-ALA-PRO Boronic Acid]
pIC50 [1, 9]: 7.41
pIC50 [1, 10]: 7.47
Approximate Time of Sacrifice or Time Animal was Found Dead (hr post-dose) [7]: ~7 h (found dead)
Approximate Time of Sacrifice or Time Animal was Found Dead (hr post-dose) [8]: ~4 h (sacrificed)

exendin-4: in phase 3 clinical trials for the treatment of type 2 diabetes (Amylin); powerful agent for lowering fasting blood glucose [reference compound]
Effect in lowering fasting blood glucose as a function of hyperglycemia ([4]; FIG. 67): The greater the hyperglycemia the greater is the effect

From US9629921B2, “Smart pro-drugs of serine protease inhibitors” (Trustees of Tufts College, priority 2002, dated 2017)
